According to publication PMC2759517 (PLoS ONE, 2009):
Where no end group is shown, it is not given here.

Assays:
HA-tagged PA of FluB = molecular target: T1, HA-tagged PA of FluB (Influenza B virus, UniProt Q9QLI9); test: biochemical; assay type: binding
T1 construct: upstream of the initiation codon and antisense primers with a deleted stop codon; made in house; host or cells: human 293T cells, transiently transfected; unpurified cell lysate

HA-tagged PA of FluA = HA-tagged PA of FluA (Influenza A virus, UniProt Q2VC91); test: biochemical; assay type: binding

T1 sequence (Q9QLI9 whole entry): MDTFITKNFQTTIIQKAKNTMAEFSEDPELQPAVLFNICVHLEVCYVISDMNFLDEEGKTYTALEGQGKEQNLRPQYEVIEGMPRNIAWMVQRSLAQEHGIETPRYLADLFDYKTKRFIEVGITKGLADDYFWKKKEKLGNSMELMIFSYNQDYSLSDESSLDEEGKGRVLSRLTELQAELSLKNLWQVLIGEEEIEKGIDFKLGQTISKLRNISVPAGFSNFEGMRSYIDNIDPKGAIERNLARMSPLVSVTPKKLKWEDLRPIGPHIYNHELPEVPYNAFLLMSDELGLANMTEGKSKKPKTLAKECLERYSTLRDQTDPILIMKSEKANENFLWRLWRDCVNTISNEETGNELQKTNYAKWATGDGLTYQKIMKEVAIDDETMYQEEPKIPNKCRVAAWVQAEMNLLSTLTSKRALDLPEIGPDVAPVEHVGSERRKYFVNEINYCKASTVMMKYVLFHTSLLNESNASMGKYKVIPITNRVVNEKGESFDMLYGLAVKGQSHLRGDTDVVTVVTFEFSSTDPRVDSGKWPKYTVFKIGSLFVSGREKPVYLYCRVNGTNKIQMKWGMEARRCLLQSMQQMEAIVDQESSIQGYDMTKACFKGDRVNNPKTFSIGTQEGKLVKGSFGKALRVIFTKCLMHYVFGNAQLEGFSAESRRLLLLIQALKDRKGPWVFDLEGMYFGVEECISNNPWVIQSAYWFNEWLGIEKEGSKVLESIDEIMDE

Molecule | IC50 (HA-tagged PA of FluB) [nM] | IC50 (HA-tagged PA of FluA) [nM]
MNINPYFLFIDVPIQ-NH2 [PB11-15 B] | 45 | –
CSCC[C@H](N)C(=O)N[C@@H](CC(=O)O)C(=O)N[C@H](C(=O)N[C@@H](CC(N)=O)C(=O)N1CCC[C@H]1C(=O)N[C@H](C(=O)N[C@@H](CC(C)C)C(=O)N[C@@H](CC(C)C)C(=O)N[C@@H](Cc1ccccc1)C(=O)N[C@@H](CC(C)C)C(=O)N[C@@H](CCCCN)C(=O)N[C@H](C(=O)N1CCC[C@H]1C(=O)N[C@@H](C)C(=O)N[C@@H](CCC(N)=O)C(N)=O)C(C)C)[C@@H](C)O)C(C)C [PB11-15 A] | > 3000 | –
MDVNPTLLFLK-NH2 [1–11] | – | 900
